Read-outs that look alike come from different tables or passages of the source.
Tests used:
AAPH-intoxication mice = assay: AAPH-intoxication mouse model: survival; conditions: male ICR mice, AAPH 125 mg/kg i.p., 7 days
TNF-α-induced shock mice = assay: TNF-α-induced shock mouse model: survival; conditions: human TNF-α + D-galactosamine i.p., 20 mg/kg i.v. immediately after, 7 days
SEB-induced shock mice = conditions: mouse, in vivo
LPS-induced shock mice = conditions: male ICR mice, LPS 12 mg/kg i.v., 20 mg/kg i.v. 6 h after LPS
[1] = tested on: human vascular endothelial cells (HUEC); assay: Active oxygen production in endothelial cells under high glucose load; type: cell-based; conditions: 30 mM glucose load, control 91.2, glucose alone 140.5
Description: Next, glucose was added to a glucose concentration of 30 mM on each plate, and the cells were CO2 incubated for 1 hour at 37° C. After completion of culture the cells were collected and intracellular active oxygen was measured by FACS Calibur (Flow Cytometry System; Becton Dickinson Japan) using […] (intracellular active oxygen measurement kit; […] Pharma).

[2] = tested on: TNF-α-stimulated mouse peritoneal macrophage; assay: IL-6 production from TNF-α-stimulated mouse peritoneal macrophage; type: cell-based; conditions: 10 ng/mL TNF-α, 24 h
HWEC cells = assay: IL-8 production in endothelial cells under high glucose load; type: cell-based, human; conditions: 30 mM glucose load, 2 h, glucose alone 1196 pg/mL

Cc1cc2nc3c(=O)[nH]c(=O)nc-3n(C[C@H](O)[C@H](O)[C@H](O)COP(=O)([O-])O)c2cc1C.[Na+] [5′-FMN-Na, riboflavin-5′-phosphate sodium ester]
Survival number (AAPH-intoxication mice; 20 mg/kg i.p. (−24 h, 0)): 7/10
Survival rate (%) (AAPH-intoxication mice; 20 mg/kg i.p. (−24 h, 0), P < 0.05 vs. Saline): 70%
Survival number (AAPH-intoxication mice; 20 mg/kg i.v. (−24 h, 0, +1 h)): 6/10
Survival rate (%) (AAPH-intoxication mice; 20 mg/kg i.v. (−24 h, 0, +1 h)): 60%
Survival number (TNF-α-induced shock mice; female ICR mice): 7/10
Survival rate (%) (TNF-α-induced shock mice; female ICR mice): 70%
Survival number (TNF-α-induced shock mice; male BALB/c mice): 6/10
Survival rate (%) (TNF-α-induced shock mice; male BALB/c mice, P < 0.05 vs. Saline, 20 mg/kg): 60%
plasma IL-6 concentration (SEB-induced shock mice): suppression effect
plasma INF-γ concentration (SEB-induced shock mice): suppression effect
plasma MIP-2 concentration (SEB-induced shock mice): suppression effect
plasma GM-CSF concentration (LPS-induced shock mice; 21 h after LPS (second peak)): tended to depress
plasma MIP-2 concentration (LPS-induced shock mice; after 9 h, maintained after 21 h): had declined
plasma IL-1β concentration (LPS-induced shock mice; between 9 and 12 h after LPS, vs control): decreased rapidly
plasma NO level (total NO2 and NO3) (LPS-induced shock mice; between 9 and 18 h): no suppression effect
plasma INF-γ concentration (LPS-induced shock mice; between 9 and 18 h after LPS, vs control): declined rapidly
plasma NO level (total NO2 and NO3) (LPS-induced shock mice; between 21 and 24 h): had a suppression effect
plasma IL-6 concentration (LPS-induced shock mice; maintained after 21 h, vs control): rapid decline
plasma MCP-1 concentration (LPS-induced shock mice; maintained until 21 h after LPS): depressed
plasma IL-10 concentration (LPS-induced shock mice; second peak (21 h after LPS)): depressed
plasma TNF-α concentration (LPS-induced shock mice; second peak (21 h after LPS)): depressed
fluorescent strength (mean fluorescence), intracellular active oxygen ([1]; 0.1 μg/mL): 114.2
fluorescent strength (mean fluorescence), intracellular active oxygen ([1]; 0.39 μg/mL): 125.0
fluorescent strength (mean fluorescence), intracellular active oxygen ([1]; 1.56 μg/mL): 111.9
fluorescent strength (mean fluorescence), intracellular active oxygen ([1]; 6.25 μg/mL): 89.5
TNF-α-induced IL-6 production ([2]; 1.56 μg/mL 5′-FMN-Na): suppressed
TNF-α-induced IL-6 production ([2]; 25 μg/mL 5′-FMN-Na): suppressed
IL-8 concentration in the medium (HWEC cells; 6.25 μg/mL): 297 pg/mL
IL-8 concentration in the medium (HWEC cells; 25 μg/mL): 168 pg/mL

Reference: patent publication US20050208124A1, “Drugs containing riboflavin-type compounds” (priority 2003, published 2005)
